The target of the test is Bcl-2 (Homo sapiens (Human), UniProt P10415). The test is described as follows: Time Resolved-Fluorescence Resonance Energy Transfer (TR-FRET) Bcl-2 binding assay with F-Bak peptide probe. The note with it: GST-Bcl-2 1 nM, F-Bak peptide probe 100 nM, Tb-anti-GST antibody 1 nM; Ki by Wang's equation. As to the method:
Determination of the utility of compounds having Formula (I) as binders to and inhibitors of anti-apoptotic Bcl-2 proteins was performed using the Time Resolved-Fluorescence Resonance Energy Transfer (TR-FRET) Assay. Tb-anti-GST antibody was purchased from Invitrogen (Catalog No. PV4216).
Representative compounds were serially diluted in dimethyl sulfoxide (DMSO) starting at 50 μM (2× starting concentration; 10% DMSO) and 10 μL were transferred into a 384-well plate. The samples are then mixed on a shaker for 1 minute and incubated for an additional 3 hours at room temperature. For each assay, the probe/antibody and protein/probe/antibody were included on each assay plate as negative and positive controls, respectively. Fluorescence was measured on the ENVISION plate reader (Perkin Elmer) using a 340/35 nm excitation filter and 520/525 (F-Bak peptide) and 495/510 nm (Tb-labeled […] antibody) emission filters Inhibition constants (Ki) are shown in TABLE 2 below and were determined using Wang's equation (Wang Z.-X. An Exact Mathematical Expression For Describing Competitive Binding Of Two Different Ligands To A Protein Molecule. FEBS Lett. 1995, 360:111-4).
The inhibition constant (Ki) is the dissociation constant of an enzyme-inhibitor complex or a protein/small molecule complex, wherein the small molecule is inhibiting binding of one protein to another protein. So a large K, value indicates a low binding affinity and a small Ki value indicates a high binding affinity.
The compounds are therefore expected to have utility in treatment of diseases during which anti-apoptotic Bcl-2 protein is expressed.

Experimental findings from patent publication US9156856B2, “Apoptosis-inducing agents for the treatment of cancer and immune and autoimmune diseases” (AbbVie Inc., priority 2009, dated 2015) are described below.

Sequence of Bcl-2 (P10415 whole entry): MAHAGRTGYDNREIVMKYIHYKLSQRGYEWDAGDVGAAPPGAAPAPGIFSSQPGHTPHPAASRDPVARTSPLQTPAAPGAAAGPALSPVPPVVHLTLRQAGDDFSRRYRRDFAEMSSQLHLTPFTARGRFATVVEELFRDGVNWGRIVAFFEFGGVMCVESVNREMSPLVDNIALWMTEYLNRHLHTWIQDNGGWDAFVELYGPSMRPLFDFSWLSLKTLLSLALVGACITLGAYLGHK

`Cc1nsc(S(=O)(=O)NC(=O)c2ccc(N3CCN(Cc4ccccc4-c4ccc(Cl)cc4)CC3)cc2)c1Cl` [Example 24, 4-{4-[(4′-chloro-1,1′-biphenyl-2-yl)methyl]piperazin-1-yl}-N-[(4-chloro-3-methylisothiazol-5-yl)sulfonyl]benzamide] yielded a Ki of 342 nM.
In turn, `CC(C)N(C)CC[C@H](CSc1ccccc1)Nc1sc(S(=O)(=O)NC(=O)c2ccc(N3CCN(CC4=C(c5ccc(Cl)cc5)CCC(C)(C)C4)CC3)cc2)cc1[N+](=O)[O-]` [Example 9, 4-(4-{[2-(4-chlorophenyl)-5,5-dimethylcyclohex-1-en-1-yl]methyl}piperazin-1-yl)-N-{[5-({(1R)-3-[isopropyl(methyl)amino]-1-[(phenylthio)methyl]propyl}amino)-4-nitrothien-2-yl]sulfonyl}benzamide] registered a Ki of 0.307 nM.
For `COC(=O)c1ccc(S(=O)(=O)NC(=O)c2ccc(N3CCN(Cc4ccccc4-c4ccc(Cl)cc4)CC3)cc2)n1C` [Example 22, methyl 5-{[(4-{4-[(4′-chloro-1,1′-biphenyl-2-yl)methyl]piperazin-1-yl}benzoyl)amino]sulfonyl}-1-methyl-1H-pyrrole-2-carboxylate] the value was 188 nM; for `Cc1cc(C)n2nc(S(=O)(=O)NC(=O)c3ccc(N4CCN(CC5=C(c6ccc(Cl)cc6)CC(C)(C)CC5)CC4)cc3Oc3cc4cc[nH]c4cc3F)nc2n1` [Example 41, 4-(4-{[2-(4-chlorophenyl)-4,4-dimethylcyclohex-1-en-1-yl]methyl}piperazin-1-yl)-N-[(5,7-dimethyl[1,2,4]triazolo[1,5-a]pyrimidin-2-yl)sulfonyl]-2-[(6-fluoro-1H-indol-5-yl)oxy]benzamide], 0.053 nM; for `CC(=O)N(CCSc1ccccc1)C1CCN(S(=O)(=O)NC(=O)c2ccc(N3CCN(Cc4ccccc4-c4ccc(Cl)cc4)CC3)cc2)CC1` [Example 5, N-[(4-{acetyl[2-(phenylthio)ethyl]amino}piperidin-1-yl)sulfonyl]-4-{4-[(4′-chloro-1,1′-biphenyl-2-yl)methyl]piperazin-1-yl}benzamide], 176 nM.
The figure for `CN(CCSc1ccccc1)C1CCN(S(=O)(=O)NC(=O)c2ccc(N3CCN(Cc4ccccc4-c4ccc(Cl)cc4)CC3)cc2)CC1` [Example 6, 4-{4-[(4′-chloro-1,1′-biphenyl-2-yl)methyl]piperazin-1-yl}-N-[(4-{methyl[2-(phenylthio)ethyl]amino}piperidin-1-yl)sulfonyl]benzamide] is 704 nM.
The figure for `O=C(NS(=O)(=O)c1c(Cl)nc2sccn12)c1ccc(N2CCN(Cc3ccccc3-c3ccc(Cl)cc3)CC2)cc1` [Example 13, 4-{4-[(4′-chloro-1,1′-biphenyl-2-yl)methyl]piperazin-1-yl}-N-[(6-chloroimidazo[2,1-b][1,3]thiazol-5-yl)sulfonyl]benzamide] is 388 nM; for `Cc1noc(C)c1S(=O)(=O)NC(=O)c1ccc(N2CCN(Cc3ccccc3-c3ccc(Cl)cc3)CC2)cc1` [Example 32, 4-{4-[(4′-chloro-1,1′-biphenyl-2-yl)methyl]piperazin-1-yl}-N-[(3,5-dimethylisoxazol-4-yl)sulfonyl]benzamide] it is 438 nM; for `O=C(NS(=O)(=O)c1nc2ccccc2s1)c1ccc(N2CCN(Cc3ccccc3-c3ccc(Cl)cc3)CC2)cc1` [Example 18, N-(1,3-benzothiazol-2-ylsulfonyl)-4-{4-[(4′-chloro-1,1′-biphenyl-2-yl)methyl]piperazin-1-yl}benzamide] it is 129 nM.
Molecule `Cc1nc(OCC2(F)CCOCC2)sc1S(=O)(=O)NC(=O)c1ccc(N2CCN(CC3=C(c4ccc(Cl)cc4)CC(C)(C)CC3)CC2)cc1Oc1cccc2[nH]cnc12` [Example 46, 2-(1H-benzimidazol-4-yloxy)-4-(4-{[2-(4-chlorophenyl)-4,4-dimethylcyclohex-1-en-1-yl]methyl}piperazin-1-yl)-N-({2-[(4-fluorotetrahydro-2H-pyran-4-yl)methoxy]-4-methyl-1,3-thiazol-5-yl}sulfonyl)benzamide] showed a Ki of 1.75 nM.
The figure for `Cc1cc(C)n2nc(S(=O)(=O)NC(=O)c3ccc(N4CCN(Cc5ccccc5-c5ccc(Cl)cc5)CC4)cc3)nc2n1` [Example 20, 4-{4-[(4′-chloro-1,1′-biphenyl-2-yl)methyl]piperazin-1-yl}-N-[(5,7-dimethyl[1,2,4]triazolo[1,5-a]pyrimidin-2-yl)sulfonyl]benzamide] is 48.1 nM; for `CCC(CC)NC(=O)c1nnc(S(=O)(=O)NC(=O)c2ccc(N3CCN(Cc4ccccc4-c4ccc(Cl)cc4)CC3)cc2)s1` [Example 28, 5-{[(4-{4-[(4′-chloro-1,1′-biphenyl-2-yl)methyl]piperazin-1-yl}benzoyl)amino]sulfonyl}-N-(1-ethylpropyl)-1,3,4-thiadiazole-2-carboxamide] it is 417 nM.
Take `O=C(NS(=O)(=O)N1CCOCC1)c1ccc(N2CCN(Cc3ccccc3-c3ccc(Cl)cc3)CC2)cc1` [Example 14, 4-{4-[(4′-chloro-1,1′-biphenyl-2-yl)methyl]piperazin-1-yl}-N-(morpholin-4-ylsulfonyl)benzamide]: the Ki amounted to 409 nM.
For the molecule `CN(C)CC[C@H](CSc1ccccc1)Nc1sc(S(=O)(=O)NC(=O)c2ccc(N3CCC(=Cc4ccccc4C(F)(F)F)CC3)cc2)cc1[N+](=O)[O-]` [Example 36, N-{[5-({(1R)-3-(dimethylamino)-1-[(phenylthio)methyl]propyl}amino)-4-nitrothien-2-yl]sulfonyl}-4-{4-[2-(trifluoromethyl)benzylidene]piperidin-1-yl}benzamide], the inhibition constant Ki worked out at 294 nM. This Ki and that of the molecule before are within 1.5-fold of each other.
Molecule `CC(C)N(C)CC[C@H](CSc1ccccc1)Nc1sc(S(=O)(=O)NC(=O)c2ccc(N3CCN(CC4=C(c5ccc(Cl)cc5)CCCC4)CC3)cc2)cc1[N+](=O)[O-]` [Example 8, 4-(4-{[2-(4-chlorophenyl)cyclohex-1-en-1-yl]methyl}piperazin-1-yl)-N-{[5-({(1R)-3-[isopropyl(methyl)amino]-1-[(phenylthio)methyl]propyl}amino)-4-nitrothien-2-yl]sulfonyl}benzamide] returned a Ki of 0.064 nM.
With `Cc1nc(OC[C@@H]2CN(C(=O)OC(C)(C)C)CCO2)sc1S(=O)(=O)NC(=O)c1ccc(N2CCN(CC3=C(c4ccc(Cl)cc4)CC(C)(C)CC3)CC2)cc1Oc1cccc2[nH]cnc12` [Example 44, tert-butyl (2S)-2-{[(5-{[2-(1H-benzimidazol-4-yloxy)-4-(4-{[2-(4-chlorophenyl)-4,4-dimethylcyclohex-1-en-1-yl]methyl}piperazin-1-yl)benzoyl]sulfamoyl}-4-methyl-1,3-thiazol-2-yl)oxy]methyl}morpholine-4-carboxylate], the Ki worked out at 24.8 nM.
For `CC1(C)CCC(CN2CCN(c3ccc(C(=O)NS(=O)(=O)c4cc([N+](=O)[O-])c(NCCCN5CCCC5)s4)c(Oc4ccc5[nH]ccc5c4)c3)CC2)=C(c2ccc(Cl)cc2)C1` [Example 33, 4-(4-{[2-(4-chlorophenyl)-4,4-dimethylcyclohex-1-en-1-yl]methyl}piperazin-1-yl)-2-(1H-indol-5-yloxy)-N-({4-nitro-5-[(3-pyrrolidin-1-ylpropyl)amino]thien-2-yl}sulfonyl)benzamide] the value was 0.649 nM.
For `Cc1c(S(=O)(=O)NC(=O)c2ccc(N3CCN(Cc4ccccc4-c4ccc(Cl)cc4)CC3)cc2Oc2ccccc2)sc2ccc(Cl)cc12` [Example 39, 4-{4-[(4′-chloro-1,1′-biphenyl-2-yl)methyl]piperazin-1-yl}-N-[(5-chloro-3-methyl-1-benzothien-2-yl)sulfonyl]-2-phenoxybenzamide] the value was 20.2 nM; for `O=C(NS(=O)(=O)c1cc([N+](=O)[O-])c(N2CCCCC2)s1)c1ccc(N2CCN(Cc3ccccc3-c3ccc(Cl)cc3)CC2)cc1` [Example 30, 4-{4-[(4′-chloro-1,1′-biphenyl-2-yl)methyl]piperazin-1-yl}-N-[(4-nitro-5-piperidin-1-ylthien-2-yl)sulfonyl]benzamide], 269 nM; for `Cc1nc(C)c(S(=O)(=O)NC(=O)c2ccc(N3CCN(Cc4ccccc4-c4ccc(Cl)cc4)CC3)cc2)s1` [Example 15, 4-{4-[(4′-chloro-1,1′-biphenyl-2-yl)methyl]piperazin-1-yl}-N-[(2,4-dimethyl-1,3-thiazol-5-yl)sulfonyl]benzamide], 282 nM.
Molecule `O=C(NS(=O)(=O)c1ccc(/C=C/c2ncon2)s1)c1ccc(N2CCN(Cc3ccccc3-c3ccc(Cl)cc3)CC2)cc1` [Example 26, 4-{4-[(4′-chloro-1,1′-biphenyl-2-yl)methyl]piperazin-1-yl}-N-({5-[(E)-2-(1,2,4-oxadiazol-3-yl)vinyl]thien-2-yl}sulfonyl)benzamide] had an inhibition constant (Ki) of 393 nM.
For `Cc1nc(OCC2(F)CCOCC2)sc1S(=O)(=O)NC(=O)c1ccc(N2CCN(CC3=C(c4ccc(Cl)cc4)CC(C)(C)CC3)CC2)cc1Oc1cnc2[nH]ccc2c1` [Example 45, 4-(4-{[2-(4-chlorophenyl)-4,4-dimethylcyclohex-1-en-1-yl]methyl}piperazin-1-yl)-N-({2-[(4-fluorotetrahydro-2H-pyran-4-yl)methoxy]-4-methyl-1,3-thiazol-5-yl}sulfonyl)-2-(1H-pyrrolo[2,3-b]pyridin-5-yloxy)benzamide] the value was 6.73 nM.
